Data as given in the supplement of paper PMC10307832.

How the values were obtained:
Experiment in all cases: relative viability (nuclei count vs DMSO), 5 days (fraction); higher = more cells survive
17-AAG + AZD7762 = compound: C=CCNC1=C2C[C@@H](C)C[C@H](OC)[C@H](O)[C@@H](C)/C=C(\C)[C@H](OC(N)=O)[C@@H](OC)/C=C\C=C(/C)C(=O)NC(=CC1=O)C2=O [17-AAG] + NC(=O)Nc1cc(-c2cccc(F)c2)sc1C(=O)N[C@H]1CCCNC1 [AZD7762] (partner 0.2 µM)
Summary of the method: (§1)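 Nuclei were stained with Hoechst during a one-step fixation (final 0.05% Triton X-100, 1% formaldehyde, 1 ug/ml Hoechst) carried out 5 days after dosing, then counted on 4× images. The cells, lung cancer lines in 1536-well plates, had been dosed by pin tool the day after seeding with one drug alone or a fixed anchor-drug dose plus five library-drug doses (not always all listed) in √10 steps. Relative viability is the nuclei count in treated wells divided by that in vehicle wells, and each value is the median of duplicate plates.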

17-AAG + Vorinostat = compound: C=CCNC1=C2C[C@@H](C)C[C@H](OC)[C@H](O)[C@@H](C)/C=C(\C)[C@H](OC(N)=O)[C@@H](OC)/C=C\C=C(/C)C(=O)NC(=CC1=O)C2=O [17-AAG] + O=C(CCCCCCC(=O)Nc1ccccc1)NO [Vorinostat] (partner 1 µM)
Summary of the method: as §1

17-AAG + Foretinib = compound: C=CCNC1=C2C[C@@H](C)C[C@H](OC)[C@H](O)[C@@H](C)/C=C(\C)[C@H](OC(N)=O)[C@@H](OC)/C=C\C=C(/C)C(=O)NC(=CC1=O)C2=O [17-AAG] + COc1cc2c(Oc3ccc(NC(=O)C4(C(=O)Nc5ccc(F)cc5)CC4)cc3F)ccnc2cc1OCCCN1CCOCC1 [Foretinib] (partner 0.25 µM)
Summary of the method: as §1

17-AAG + Pictilisib = compound: C=CCNC1=C2C[C@@H](C)C[C@H](OC)[C@H](O)[C@@H](C)/C=C(\C)[C@H](OC(N)=O)[C@@H](OC)/C=C\C=C(/C)C(=O)NC(=CC1=O)C2=O [17-AAG] + CS(=O)(=O)N1CCN(Cc2cc3nc(-c4cccc5[nH]ncc45)nc(N4CCOCC4)c3s2)CC1 [Pictilisib] (partner 1 µM)
Summary of the method: as §1

Cell Line	relative viability (17-AAG + AZD7762; first compound 0.00128 µM)	relative viability (17-AAG + AZD7762; first compound 0.004048 µM)	relative viability (17-AAG + AZD7762; first compound 0.0128 µM)	relative viability (17-AAG + AZD7762; first compound 0.04048 µM)	relative viability (17-AAG + AZD7762; first compound 0.128 µM)	relative viability (17-AAG + Vorinostat; first compound 0.00128 µM)	relative viability (17-AAG + Vorinostat; first compound 0.004048 µM)	relative viability (17-AAG + Vorinostat; first compound 0.0128 µM)	relative viability (17-AAG + Vorinostat; first compound 0.04048 µM)	relative viability (17-AAG + Vorinostat; first compound 0.128 µM)	relative viability (17-AAG + Foretinib; first compound 0.00128 µM)	relative viability (17-AAG + Foretinib; first compound 0.004048 µM)	relative viability (17-AAG + Foretinib; first compound 0.0128 µM)	relative viability (17-AAG + Foretinib; first compound 0.04048 µM)	relative viability (17-AAG + Foretinib; first compound 0.128 µM)	relative viability (17-AAG + Pictilisib; first compound 0.00128 µM)	relative viability (17-AAG + Pictilisib; first compound 0.004048 µM)	relative viability (17-AAG + Pictilisib; first compound 0.0128 µM)	relative viability (17-AAG + Pictilisib; first compound 0.04048 µM)	relative viability (17-AAG + Pictilisib; first compound 0.128 µM)
NCI-H1755	0.47	0.468	0.362	0.234	0.195	0.815	0.735	0.712	0.589	0.243	0.92	0.898	0.888	0.302	0.309	0.446	0.407	0.229	0.126	0.09
NCI-H2228						0.691	0.588	0.168	0.167	0.12	0.772	0.587	0.142	0.119	0.0997	0.346	0.153	0.128	0.148	0.102
NCI-H2087	1.28	1.3	0.471	0.154	0.116	0.996	0.656	0.252	0.116	0.116	1.08	0.855	0.183	0.137	0.113	0.867	0.651	0.356	0.229	0.175
LU99A	0.372	0.284	0.115	0.179	0.074	0.479	0.476	0.301	0.203	0.127	0.931	0.783	0.719	0.222	0.213	0.308	0.377	0.232	0.228	0.144
NCI-H1355	0.795	0.682	0.311	0.236	0.144	0.639	0.692	0.607	0.228	0.141	0.938	0.97	0.91	0.843	0.328	0.512	0.439	0.264	0.183	0.151
NCI-H661						0.785	0.791	0.707	0.441	0.31	0.945	0.989	0.809	0.567	0.286	0.39	0.534	0.363	0.259	0.275
UMC-11						0.467	0.363	0.343	0.229	0.222	1.02	1.04	0.847	0.27	0.174	0.824	0.809	0.662	0.219	0.143
COR-L23						0.489	0.408	0.47	0.319	0.109	0.938	0.943	0.846	0.854	0.143	0.703	0.77	0.789	0.38	0.083
SW 1573						0.782	1.01	0.241	0.128	0.0675	0.886	1.01	0.829	0.24	0.113	0.549	0.531	0.206	0.19	0.104
NCI-H1650						0.371	0.376	0.232	0.152	0.138	0.89	0.344	0.225	0.212	0.175	0.49	0.212	0.128	0.173	0.144
NCI-H522	0.845	0.857	0.569	0.51	0.393	0.982	0.944	0.518	0.423	0.382										
SK-MES-1						1.1	1.03	0.514	0.182	0.179	1	0.997	0.501	0.192	0.154	0.414	0.387	0.139	0.134	0.1
NCI-H2009						0.681	0.724	0.735	0.699	0.276	1.23	1.14	1.17	0.85	0.138	0.744	0.829	0.744	0.277	0.091
NCI-H2023						0.572	0.37	0.112	0.0782	0.0643	0.93	0.672	0.297	0.0761	0.0537	0.292	0.173	0.0917	0.0989	0.0852
COR-L 105						0.876	0.983	0.783	0.728	0.439	0.965	1	0.805	0.715	0.31	0.394	0.434	0.435	0.324	0.298
NCI-H1563											1.04	0.83	0.559	0.549	0.5	0.67	0.647	0.604	0.614	0.563
EBC-1											0.101	0.13	0.138	0.104	0.0946	0.477	0.157	0.13	0.185	0.143
SK-LU-1						0.86	0.556	0.293	0.253	0.199	0.863	0.566	0.167	0.143	0.127	0.558	0.374	0.199	0.127	0.141
Calu-6											0.833	0.899	0.754	0.249	0.121	0.913	0.867	0.762	0.199	0.133
HCC-44	1	1.02	1.03	0.973	0.398	1.17	1.13	1.19	1.09	0.917						0.623	0.564	0.319	0.152	0.113
